Measured values as given in patent publication US12466839B2, “Allosteric AKT inhibitors for use in the treatment of Hereditary Hemorrhagic Telangiectasia” (VADERIS THERAPEUTICS AG, priority 2020, dated 2025).

Key:
full length AKT1 = full length AKT1 (Homo sapiens, UniProt P31749); assay: Biochemical kinase assay
Nav1.5 = Nav1.5 (Homo sapiens, UniProt Q14524); assay: Cardiac ion channel profile; type: cell-based
Cav1.2 = Cav1.2 (Homo sapiens, UniProt Q13936); assay: Cardiac ion channel profile; type: cell-based
KChIP2 (Homo sapiens) = assay: Cardiac ion channel profile; type: cell-based
KCNQ1 = KCNQ1 (Homo sapiens, UniProt P51787); assay: Cardiac ion channel profile; type: cell-based
minK (Homo sapiens) = assay: Cardiac ion channel profile; type: cell-based
Kir2.1 = Kir2.1 (Homo sapiens, UniProt P63252); assay: Cardiac ion channel profile; type: cell-based
5-HT2B = biological target: T1, 5-HT2B (Homo sapiens, UniProt P41595); assay: Millipore Drug Discovery Safety and Liability Panel; type: cell-based
T1 construct: purchased Millipore
T1 sequence (P41595 whole entry, species assumed): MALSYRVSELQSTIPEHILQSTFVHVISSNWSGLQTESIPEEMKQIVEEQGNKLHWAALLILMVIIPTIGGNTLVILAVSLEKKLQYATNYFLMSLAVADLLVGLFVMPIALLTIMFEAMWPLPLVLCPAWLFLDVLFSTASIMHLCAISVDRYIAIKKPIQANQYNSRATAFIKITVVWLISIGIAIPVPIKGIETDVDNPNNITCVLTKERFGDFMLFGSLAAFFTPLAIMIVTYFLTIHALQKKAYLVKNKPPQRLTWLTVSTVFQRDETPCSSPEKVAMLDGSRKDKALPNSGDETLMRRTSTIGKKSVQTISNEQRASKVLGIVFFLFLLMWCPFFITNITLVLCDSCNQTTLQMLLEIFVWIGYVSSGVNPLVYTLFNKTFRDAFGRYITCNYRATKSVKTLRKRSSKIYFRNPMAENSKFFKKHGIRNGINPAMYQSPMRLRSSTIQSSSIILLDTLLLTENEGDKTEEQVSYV

5-HT2C = biological target: T2, 5-HT2C (Homo sapiens, UniProt P28335); assay: as above; type: cell-based
T2 construct: purchased Millipore

AT1 = biological target: T3, AT1 (Homo sapiens, UniProt P30556); assay: as above; type: cell-based
T3 construct: purchased Millipore

BB2 = biological target: T4, BB2 (Homo sapiens, UniProt P30550); assay: as above; type: cell-based
T4 construct: purchased Millipore

BDKR2 = biological target: T5, BDKR2 (Homo sapiens, UniProt P30411); assay: as above; type: cell-based
T5 construct: purchased Millipore
T5 sequence (P30411 whole entry): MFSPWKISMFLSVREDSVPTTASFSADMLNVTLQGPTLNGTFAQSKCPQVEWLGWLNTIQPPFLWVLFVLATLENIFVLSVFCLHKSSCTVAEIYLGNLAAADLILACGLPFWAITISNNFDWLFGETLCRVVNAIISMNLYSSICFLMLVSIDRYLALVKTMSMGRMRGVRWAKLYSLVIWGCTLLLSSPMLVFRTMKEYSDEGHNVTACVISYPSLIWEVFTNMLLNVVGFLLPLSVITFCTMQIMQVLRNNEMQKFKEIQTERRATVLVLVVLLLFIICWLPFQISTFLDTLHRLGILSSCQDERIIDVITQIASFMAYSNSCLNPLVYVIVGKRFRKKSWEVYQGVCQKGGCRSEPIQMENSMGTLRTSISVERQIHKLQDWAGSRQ

C5aR = biological target: T6, C5aR (Homo sapiens, UniProt P21730); assay: as above; type: cell-based
T6 construct: purchased Millipore
T6 sequence (P21730 whole entry): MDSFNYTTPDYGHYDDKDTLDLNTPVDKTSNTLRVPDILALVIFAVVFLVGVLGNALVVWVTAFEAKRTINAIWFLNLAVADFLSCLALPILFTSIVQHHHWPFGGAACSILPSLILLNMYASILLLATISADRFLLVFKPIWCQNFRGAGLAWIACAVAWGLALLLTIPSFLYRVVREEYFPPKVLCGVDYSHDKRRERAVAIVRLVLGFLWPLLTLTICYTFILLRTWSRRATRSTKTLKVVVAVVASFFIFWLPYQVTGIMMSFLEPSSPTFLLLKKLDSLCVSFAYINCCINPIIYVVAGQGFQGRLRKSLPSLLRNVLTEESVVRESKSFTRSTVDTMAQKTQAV

CB2 = biological target: T7, CB2 (Homo sapiens, UniProt P34972); assay: as above; type: cell-based
T7 construct: purchased Millipore
T7 sequence (P34972 whole entry): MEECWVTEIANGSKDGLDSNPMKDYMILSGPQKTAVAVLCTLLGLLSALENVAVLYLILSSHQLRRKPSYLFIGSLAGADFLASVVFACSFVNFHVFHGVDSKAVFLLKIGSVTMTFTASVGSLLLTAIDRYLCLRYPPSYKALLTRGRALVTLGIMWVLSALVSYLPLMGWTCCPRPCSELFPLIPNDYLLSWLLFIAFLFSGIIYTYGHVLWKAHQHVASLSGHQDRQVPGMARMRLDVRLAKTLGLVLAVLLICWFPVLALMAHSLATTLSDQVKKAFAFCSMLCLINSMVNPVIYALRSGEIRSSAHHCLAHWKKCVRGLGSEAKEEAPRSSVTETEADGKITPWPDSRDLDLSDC

CCK2 = biological target: T8, CCK2 (Homo sapiens, UniProt P32239); assay: as above; type: cell-based
T8 construct: purchased Millipore

CX3CR1 = biological target: T9, CX3CR1 (Homo sapiens, UniProt P49238); assay: as above; type: cell-based
T9 construct: purchased Millipore
T9 sequence (P49238 whole entry): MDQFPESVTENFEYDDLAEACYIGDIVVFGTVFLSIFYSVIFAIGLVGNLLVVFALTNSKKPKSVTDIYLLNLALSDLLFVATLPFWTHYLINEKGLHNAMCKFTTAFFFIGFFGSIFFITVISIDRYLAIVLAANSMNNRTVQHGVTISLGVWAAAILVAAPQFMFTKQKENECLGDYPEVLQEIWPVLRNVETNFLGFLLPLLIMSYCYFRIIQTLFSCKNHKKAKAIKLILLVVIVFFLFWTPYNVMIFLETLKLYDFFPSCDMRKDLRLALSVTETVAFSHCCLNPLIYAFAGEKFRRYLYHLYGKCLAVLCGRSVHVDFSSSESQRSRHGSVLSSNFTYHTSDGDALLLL

D5 = biological target: T10, D5 (Homo sapiens, UniProt P21918); assay: as above; type: cell-based
T10 construct: purchased Millipore
T10 sequence (P21918 whole entry): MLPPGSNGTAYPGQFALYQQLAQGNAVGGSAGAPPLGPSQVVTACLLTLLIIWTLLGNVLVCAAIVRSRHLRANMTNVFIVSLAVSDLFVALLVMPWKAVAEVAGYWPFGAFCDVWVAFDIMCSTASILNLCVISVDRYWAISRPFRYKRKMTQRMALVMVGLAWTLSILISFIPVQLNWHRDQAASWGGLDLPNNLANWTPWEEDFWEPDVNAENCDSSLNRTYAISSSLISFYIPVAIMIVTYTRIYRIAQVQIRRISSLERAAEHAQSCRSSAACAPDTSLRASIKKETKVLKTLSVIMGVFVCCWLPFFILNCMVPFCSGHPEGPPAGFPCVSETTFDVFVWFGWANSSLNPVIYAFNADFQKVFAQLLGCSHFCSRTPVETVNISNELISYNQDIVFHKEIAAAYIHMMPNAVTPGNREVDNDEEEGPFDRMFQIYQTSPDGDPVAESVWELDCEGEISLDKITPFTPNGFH

EP2 = biological target: T11, EP2 (Homo sapiens, UniProt P43116); assay: as above; type: cell-based
T11 construct: purchased Millipore

ETA = biological target: T12, ETA (Homo sapiens, UniProt P25101); assay: as above; type: cell-based
T12 construct: purchased Millipore

FP = biological target: T13, FP (Homo sapiens, UniProt P43088); assay: as above; type: cell-based
T13 construct: purchased Millipore
T13 sequence (P43088 whole entry): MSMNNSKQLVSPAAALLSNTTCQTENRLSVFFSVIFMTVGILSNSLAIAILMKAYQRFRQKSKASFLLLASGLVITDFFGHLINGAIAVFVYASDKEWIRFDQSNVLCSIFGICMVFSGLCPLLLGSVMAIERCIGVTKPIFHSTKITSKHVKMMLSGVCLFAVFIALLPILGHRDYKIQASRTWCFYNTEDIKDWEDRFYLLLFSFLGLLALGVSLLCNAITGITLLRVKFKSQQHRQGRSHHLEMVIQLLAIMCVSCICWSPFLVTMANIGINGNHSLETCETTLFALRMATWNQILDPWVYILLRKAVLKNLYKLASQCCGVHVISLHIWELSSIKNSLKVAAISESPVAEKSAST

GnRH = biological target: T14, GnRH (Homo sapiens, UniProt P30968); assay: as above; type: cell-based
T14 construct: purchased Millipore

H1 = biological target: T15, H1 (Homo sapiens, UniProt P35367); assay: as above; type: cell-based
T15 construct: purchased Millipore
T15 sequence (P35367 whole entry): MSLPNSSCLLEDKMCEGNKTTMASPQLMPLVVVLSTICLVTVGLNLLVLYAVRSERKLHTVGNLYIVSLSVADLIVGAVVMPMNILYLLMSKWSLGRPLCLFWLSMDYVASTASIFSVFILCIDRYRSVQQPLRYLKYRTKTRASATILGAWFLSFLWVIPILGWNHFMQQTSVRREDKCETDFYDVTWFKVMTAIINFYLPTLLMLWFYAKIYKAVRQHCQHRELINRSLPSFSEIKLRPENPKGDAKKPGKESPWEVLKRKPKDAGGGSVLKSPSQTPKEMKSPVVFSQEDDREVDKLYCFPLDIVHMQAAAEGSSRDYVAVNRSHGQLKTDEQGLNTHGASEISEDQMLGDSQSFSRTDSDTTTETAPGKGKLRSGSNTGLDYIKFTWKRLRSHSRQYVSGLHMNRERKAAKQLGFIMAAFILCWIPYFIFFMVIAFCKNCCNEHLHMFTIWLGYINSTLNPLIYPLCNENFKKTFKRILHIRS

H3 = biological target: T16, H3 (Homo sapiens, UniProt Q9Y5N1); assay: as above; type: cell-based
T16 construct: purchased Millipore

M1 = biological target: T17, M1 (Homo sapiens, UniProt P11229); assay: as above; type: cell-based
T17 construct: purchased Millipore
T17 sequence (P11229 whole entry): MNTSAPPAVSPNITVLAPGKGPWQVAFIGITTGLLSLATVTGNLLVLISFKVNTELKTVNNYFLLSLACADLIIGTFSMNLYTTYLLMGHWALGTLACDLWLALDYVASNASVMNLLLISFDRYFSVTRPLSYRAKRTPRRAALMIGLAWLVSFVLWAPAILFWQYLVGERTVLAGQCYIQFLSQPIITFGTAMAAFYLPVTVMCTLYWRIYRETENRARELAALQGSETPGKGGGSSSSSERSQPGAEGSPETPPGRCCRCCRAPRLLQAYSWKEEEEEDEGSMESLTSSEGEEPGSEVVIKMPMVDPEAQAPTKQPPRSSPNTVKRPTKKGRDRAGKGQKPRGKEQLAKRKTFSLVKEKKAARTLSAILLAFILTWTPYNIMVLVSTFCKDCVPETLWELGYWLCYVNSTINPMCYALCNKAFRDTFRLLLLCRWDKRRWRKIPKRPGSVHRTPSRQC

NMU1 = biological target: T18, NMU1 (Homo sapiens, UniProt Q9HB89); assay: as above; type: cell-based
T18 construct: Millipore

OPRM1 = biological target: T19, OPRM1 (Homo sapiens, UniProt P35372); assay: as above; type: cell-based
T19 construct: Millipore

OT = biological target: T20, OT (Homo sapiens, UniProt P30559); assay: as above; type: cell-based
T20 construct: Millipore

S1P3 = biological target: T21, S1P3 (Homo sapiens, UniProt Q99500); assay: as above; type: cell-based
T21 construct: Millipore
T21 sequence (Q99500 whole entry, species assumed): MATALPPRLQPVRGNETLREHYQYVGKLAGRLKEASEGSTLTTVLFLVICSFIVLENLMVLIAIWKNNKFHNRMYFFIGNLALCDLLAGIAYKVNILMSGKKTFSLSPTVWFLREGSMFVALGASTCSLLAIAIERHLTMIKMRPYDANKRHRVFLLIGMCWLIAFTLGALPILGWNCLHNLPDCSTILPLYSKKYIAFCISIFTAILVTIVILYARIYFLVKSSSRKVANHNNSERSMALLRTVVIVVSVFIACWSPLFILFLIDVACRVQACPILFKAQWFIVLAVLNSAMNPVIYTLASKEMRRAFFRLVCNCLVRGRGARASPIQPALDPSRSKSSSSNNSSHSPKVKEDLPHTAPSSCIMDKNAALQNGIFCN

SST4 = biological target: T22, SST4 (Homo sapiens, UniProt P31391); assay: as above; type: cell-based
T22 construct: Millipore
T22 sequence (P31391 whole entry, species assumed): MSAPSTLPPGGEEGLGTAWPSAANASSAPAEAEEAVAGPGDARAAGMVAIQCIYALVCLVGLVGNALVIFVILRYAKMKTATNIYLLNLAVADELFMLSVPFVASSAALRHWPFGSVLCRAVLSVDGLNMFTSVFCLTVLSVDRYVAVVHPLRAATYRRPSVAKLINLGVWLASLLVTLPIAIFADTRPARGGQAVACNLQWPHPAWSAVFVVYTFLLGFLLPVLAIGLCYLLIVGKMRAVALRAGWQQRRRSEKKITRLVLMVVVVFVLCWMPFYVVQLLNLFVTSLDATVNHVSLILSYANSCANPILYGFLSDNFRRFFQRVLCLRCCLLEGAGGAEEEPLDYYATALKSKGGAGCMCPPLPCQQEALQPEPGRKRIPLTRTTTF

V2 = biological target: T23, V2 (Homo sapiens, UniProt P30518); assay: as above; type: cell-based
T23 construct: Millipore
T23 sequence (P30518 whole entry): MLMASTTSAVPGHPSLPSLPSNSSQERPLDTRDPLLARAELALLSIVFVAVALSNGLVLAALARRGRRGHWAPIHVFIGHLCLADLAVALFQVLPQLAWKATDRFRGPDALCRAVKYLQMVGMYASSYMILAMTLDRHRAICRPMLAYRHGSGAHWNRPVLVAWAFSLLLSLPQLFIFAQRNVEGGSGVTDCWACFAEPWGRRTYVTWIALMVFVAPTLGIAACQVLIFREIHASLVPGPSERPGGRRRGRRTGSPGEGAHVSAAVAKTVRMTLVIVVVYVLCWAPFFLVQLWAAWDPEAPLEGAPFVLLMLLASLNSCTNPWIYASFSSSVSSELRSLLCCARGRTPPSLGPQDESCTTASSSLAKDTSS

[1] = read-out: AGONIST mean % increase in activity
[2] = read-out: ANTAGONIST mean % inhibition

`CCN1C(=O)COc2nc(-c3ccc(C4(N)CC(O)C4)cc3)c(-c3ccccc3)cc21.O=C(O)C(O)C(O)C(=O)O` [VAD044, 6-(4-(1-amino-3-hydroxycyclobutyl)phenyl)-1-ethyl-7-phenyl-1H-pyrido[2,3-b][1,4]oxazin-2(3H)-one L-tartrate] showed an IC50 (full length AKT1) of 125 nM, an inhibition at 10 µM (Nav1.5) of under 25% and an inhibition at 10 µM (Cav1.2) of under 25%. It also gave an inhibition at 10 µM (KChIP2 (Homo sapiens)) of under 25%, an inhibition at 10 µM (KCNQ1) of under 25% and an inhibition at 10 µM (minK (Homo sapiens)) of under 25%. For the same compound, the inhibition at 10 µM (Kir2.1) was under 25%, the activation at 10 µM (5-HT2B; [1]) was 3.7% and the inhibition at 10 µM (5-HT2B; [2]) was 7.6%. For the same compound, the activation at 10 µM (5-HT2C; [1]) was 0.8%, the inhibition at 10 µM (5-HT2C; [2]) was 21.9% and the activation at 10 µM (AT1; AT1, 10 μM, read-out: AGONIST mean % increase in activity) was -0.1%. The inhibition at 10 µM (AT1; [2]) was 5.4%, the activation at 10 µM (BB2; BB2, 10 μM, read-out: AGONIST mean % increase in activity) was -0.9% and the inhibition at 10 µM (BB2; [2]) was 0.9%. The activation at 10 µM (BDKR2; BDKR2, 10 μM, read-out: AGONIST mean % increase in activity) was -0.4%, the inhibition at 10 µM (BDKR2; [2]) was 14.6% and the activation at 10 µM (C5aR; C5aR, 10 μM, read-out: AGONIST mean % increase in activity) was -1.2%. For the same compound, the inhibition at 10 µM (C5aR; [2]) was 1.5%, the activation at 10 µM (CB2; CB2, 10 μM, read-out: AGONIST mean % increase in activity) was -0.9% and the inhibition at 10 µM (CB2; [2]) was 10.6%. The activation at 10 µM (CCK2; CCK2, 10 μM, read-out: AGONIST mean % increase in activity) was -0.2%, the inhibition at 10 µM (CCK2; [2]) was 8.3% and the “AGONIST mean % increase in activity” value (CX3CR1; CX3CR1, 10 μM) was 0%. It also gave an inhibition at 10 µM (CX3CR1; [2]) of 0.6%, an activation at 10 µM (D5; [1]) of -0.8% and an inhibition at 10 µM (D5; [2]) of 35.4%. For the same compound, the activation at 10 µM (EP2; EP2, 10 μM, read-out: AGONIST mean % increase in activity) was -1%, the inhibition at 10 µM (EP2; [2]) was -0.5% and the activation at 10 µM (ETA; ETA, 10 μM, read-out: AGONIST mean % increase in activity) was -0.4%. For the same compound, the inhibition at 10 µM (ETA; [2]) was 10.5%, the activation at 10 µM (FP; FP, 10 μM, read-out: AGONIST mean % increase in activity) was -0.7% and the inhibition at 10 µM (FP; [2]) was 13.6%. It also gave an activation at 10 µM (GnRH; GnRH, 10 μM, read-out: AGONIST mean % increase in activity) of -0.6%, an inhibition at 10 µM (GnRH; [2]) of 4% and an activation at 10 µM (H1; H1, 10 μM, read-out: AGONIST mean % increase in activity) of -0.2%. The inhibition at 10 µM (H1; [2]) was 3.8%, the activation at 10 µM (H3; H3, 10 μM, read-out: AGONIST mean % increase in activity) was -0.6% and the inhibition at 10 µM (H3; [2]) was 3.5%. For the same compound, the activation at 10 µM (M1; M1, 10 μM, read-out: AGONIST mean % increase in activity) was -0.7%, the inhibition at 10 µM (M1; [2]) was -3.4% and the activation at 10 µM (NMU1; NMU1, 10 μM, read-out: AGONIST mean % increase in activity) was -3.1%. The inhibition at 10 µM (NMU1; [2]) was 5.5%, the inhibition at 10 µM (OPRM1; OPRM1, read-out: ANTAGONIST mean % inhibition) was 2.4% and the activation at 10 µM (OPRM1; OPRM1, 10 μM, read-out: AGONIST mean % increase in activity) was -2%. The activation at 10 µM (OT; [1]) was -1.2%, the inhibition at 10 µM (OT; [2]) was 29.5% and the activation at 10 µM (S1P3; S1P3, 10 μM, read-out: AGONIST mean % increase in activity) was -0.4%. For the same compound, the inhibition at 10 µM (S1P3; [2]) was -0.6%, the activation at 10 µM (SST4; SST4, 10 μM, read-out: AGONIST mean % increase in activity) was -0.8% and the inhibition at 10 µM (SST4; [2]) was 16.5%. It also gave an activation at 10 µM (V2; [1]) of -1.5% and an inhibition at 10 µM (V2; [2]) of 22.8%.
